Publication PMC5459956 (International Journal of Nanomedicine, 2017)
pIC50: −log10 of the molar value.

Key:
MV-4–11 cells = assay: MV-4–11 cytotoxicity assay; assay type: cell-based; conditions: read-out: 72-h IC50, 72 h exposure, PrestoBlue
[1] = cited from earlier work
[2] = test system: healthy bronchial epithelial cells; conditions: in vitro; cited from earlier work
[3] = test system: ROS generation in MV-4–11 cells; assay: Reactive oxygen species assay; assay type: cell-based; conditions: 4 h, Cu(DDC)2 200 µM, menadione 50 µM, versus cell-free condition

| Structure (SMILES) | pIC50 (MV-4–11 cells) | solubility (slightly soluble precipitate) [1] | effect in healthy bronchial epithelial cells [2] | ROS generation [3] |
| --- | --- | --- | --- | --- |
| CCN(CC)C(=S)[S-].CCN(CC)C(=S)[S-].[Cu+2] [Cu(DDC)2, Copper diethyldithiocarbamate] | ~6.96 | < 100 µg/mL | did not have any effect | – |
| CC1=CC(=O)c2ccccc2C1=O [Menadione, menadione] | – | – | – | ROS formation in the cells was evident |
